Measurements as given in ChEMBL document CHEMBL1124261 (J Med Chem, 1988).

Tests used:
[1] = target: T1, Dihydrofolate reductase (Mus musculus, UniProt P00375); assay: biochemical
T1 sequence (P00375 whole entry): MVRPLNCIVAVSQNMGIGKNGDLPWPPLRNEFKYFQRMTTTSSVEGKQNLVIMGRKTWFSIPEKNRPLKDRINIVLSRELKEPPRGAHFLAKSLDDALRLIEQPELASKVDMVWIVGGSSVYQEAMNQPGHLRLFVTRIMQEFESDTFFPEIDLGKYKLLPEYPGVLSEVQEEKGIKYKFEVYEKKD
Description: Tested for inhibition against purified Dihydrofolate reductase from L1210 murine leukemia cells

[2] = system: L1210; assay: Tested for cell-growth inhibition against mouse leukemic L1210 cells; assay type: functional, cell-based
[3] = system: L1210 ( R81); assay: Tested for cell-growth inhibition against mouse leukemic L1210/R81 cells; assay type: functional, cell-based
[4] = organism: Mus musculus; assay: (§1) Tested for inhibition against purified Folyl-polyglutamate synthase from mouse liver; settings: concentration not given here
[5] = Inhibitory constant against purified Folyl-polyglutamate synthase from mouse liver; assay type: functional
[6] = system: L1210; assay: Mean change in weight of mice infected with L1210 leukemia after 7 days after an intraperitoneal dose of 20 mg/kg; assay type: functional, Mus musculus
[7] = system: L1210; assay: Mean change in weight of mice infected with L1210 leukemia after 7 days after an intraperitoneal dose of 60 mg/kg; assay type: functional, Mus musculus
[8] = system: L1210; assay: Increase in life span of mice infected with L1210 leukemia after an intraperitoneal dose of 40 mg/kg for 9 days; assay type: functional; settings: Mus musculus, L1210, ip, 216 h
[9] = system: L1210; assay: Range for the survival of mice infected with L1210 leukemia after an intraperitoneal dose of 80 mg/kg for 9 days; Range is 9-23; assay type: functional, Mus musculus
[10] = system: L1210; assay: Mean survival of mice infected with L1210 leukemia after an intraperitoneal dose of 40 mg/kg for 9 days; assay type: functional, Mus musculus
[11] = system: L1210; assay: Mean survival of mice infected with L1210 leukemia after an intraperitoneal dose of 20 mg/kg for 9 days; assay type: functional, Mus musculus
[12] = system: L1210; assay: Range for the survival of mice infected with L1210 leukemia after an intraperitoneal dose of 40 mg/kg for 9 days; Range is 13-23; assay type: functional, Mus musculus
[13] = system: L1210; assay: Range for the survival of mice infected with L1210 leukemia after an intraperitoneal dose of 20 mg/kg for 9 days; Range is 15-16; assay type: functional, Mus musculus
[14] = system: L1210; assay: Mean survival of mice infected with L1210 leukemia after an intraperitoneal dose of 80 mg/kg for 9 days; assay type: functional, Mus musculus
[15] = system: L1210; assay: Increase in life span of mice infected with L1210 leukemia after an intraperitoneal dose of 80 mg/kg for 9 days; assay type: functional; settings: Mus musculus, L1210, ip, 216 h
[16] = system: L1210; assay: Increase in life span of mice infected with L1210 leukemia after an intraperitoneal dose of 60 mg/kg for 9 days; assay type: functional; settings: Mus musculus, L1210, ip, 216 h
[17] = system: CCRF-CEM; assay: Tested for cell-growth inhibition against human leukemic lymphoblast CEM cells; assay type: functional, cell-based
[18] = system: CCRF-CEM; assay: Tested for cell-growth inhibition against human leukemic lymphoblast CEM/MTX cells; assay type: functional, cell-based
[19] = system: L1210; assay: Mean survival of mice infected with L1210 leukemia after an intraperitoneal dose of 60 mg/kg for 9 days; assay type: functional, Mus musculus
[20] = system: L1210; assay: Mean change in weight of mice infected with L1210 leukemia after 7 days after an intraperitoneal dose of 40 mg/kg; assay type: functional, Mus musculus
[21] = system: L1210; assay: Mean change in weight of mice infected with L1210 leukemia after 7 days after an intraperitoneal dose of 80 mg/kg; assay type: functional, Mus musculus
[22] = system: L1210; assay: Increase in life span of mice infected with L1210 leukemia after an intraperitoneal dose of 20 mg/kg for 9 days; assay type: functional; settings: Mus musculus, L1210, ip, 216 h
[23] = system: L1210; assay: Range for the survival of mice infected with L1210 leukemia after an intraperitoneal dose of 60 mg/kg for 9 days; Range is 10-18; assay type: functional, Mus musculus
[24] = system: L1210; assay: Range for the survival of mice infected with L1210 leukemia after an intraperitoneal dose of 20 mg/kg for 9 days; Range is 16-19; assay type: functional, Mus musculus
[25] = system: L1210; assay: Range for the survival of mice infected with L1210 leukemia after an intraperitoneal dose of 60 mg/kg for 9 days; Range is […]; assay type: functional, Mus musculus
[26] = organism: Mus musculus; assay: as §1; assay type: functional; settings: dose or concentration not given here
[27] = system: L1210; assay: Range for the survival of mice infected with L1210 leukemia after an intraperitoneal dose of 80 mg/kg for 9 days; Range is 12-18; assay type: functional, Mus musculus
[28] = system: L1210; assay: Range for the survival of mice infected with L1210 leukemia after an intraperitoneal dose of 40 mg/kg for 9 days; Range is 14-24; assay type: functional, Mus musculus

SMILES	IC50 [1]	IC50 [2]	IC50 [3]	inhibition [4]	Weight change [6]	Weight change [7]	ILS at 40 mg/kg [8]	Survival [10]	Survival [11]	Survival [14]	ILS at 80 mg/kg [15]	ILS at 60 mg/kg [16]	IC50 [17]	IC50 [18]	Survival [19]	Weight change [20]	Weight change [21]	ILS at 20 mg/kg [22]	also measured
Nc1nc(N)c2nc(CNc3ccc(C(=O)NC(CCCCCCCCCC(=O)O)C(=O)O)cc3)cnc2n1 (stereo not given)	81 nM	0.65 nM	110000 nM	90%															Ki [5]: 24000 nM
CN(Cc1cnc2nc(N)nc(N)c2n1)c1ccc(C(=O)NC(CCCCCCCCC(=O)O)C(=O)O)cc1 (stereo not given)	29 nM	3.1 nM	78000 nM	49%	5%	4%	92%	16.9 days	15.2 days	15.2 days	73%	70%	56 nM	2200 nM	15 days	2%	-5%	73%	Range [9]: 9 days; Range [12]: 13 days; Range [13]: 15 days; Range [23]: 10 days
Nc1nc(N)c2nc(CNc3ccc(C(=O)N[C@@H](CCC(=O)O)C(=O)O)cc3)cnc2n1 [AMINOPTERIN]	25 nM																		
CN(Cc1cnc2nc(N)nc(N)c2n1)c1ccc(C(=O)NC(CCCCCCCCCC(=O)O)C(=O)O)cc1 (stereo not given)	34 nM	7.1 nM	58000 nM		6%	5%	95%	17.2 days	17.4 days	15.2 days	73%	100%	16 nM	10000 nM	17.6 days	3%	2%	98%	Range [24]: 16 days; Range [25]: 15 days; inhibition [26]: 53%; Range [27]: 12 days; Range [28]: 14 days
